Assay results published in paper PMC7902330, “Pharmacokinetic study of traditional Japanese Kampo medicine shimotsuto used to treat gynecological diseases in rats” (Journal of Natural Medicines, 2021).
Where two headings read alike, the source gives them in different places.

Legend:
[1] = design: method as in PMID 31514313; details: ref 18; cited from earlier work
[2] = Pharmacokinetics of ingredients in rat plasma after oral administration of shimotsuto (targeted LC–MS/MS); assay type: in vivo; details: rat, in vivo, po, 1 g/kg
Text: The plasma levels of nine ingredients were quantified using quantitative (targeted) analysis. Among them, seven ingredients (catalpol, paeoniflorin, albiflorin, senkyunolide A, butylphthalide, ferulic acid, and ligustilide) are candidate active ingredients in shimotsuto (Table 1). Two ingredients (bergapten and 8-debenzoylpaeoniflorin) are shimotsuto ingredients which were detected and identified in shimotsuto-treated rat plasma using nontargeted LC–HRMS analysis. The nine ingredients were quantified by collecting plasma samples at 0–24 h after shimotsuto administration, pretreating with the following procedures, and then analyzing by targeted LC–MS/MS using selected reaction-monitoring mode. The LC–MS/MS system was composed of a triple quadruple MS (TripleQuad6500; SCIEX, Framingham, MA, USA) and an Agilent 1290 Infinity LC system (Agilent Technologies, Santa Clara, CA, USA). For highly sensitive and selective quantitative (targeted) analysis of each compound, we preliminarily examined optimal pretreatment and analytical LC–MS/MS methods (e.g., MS parameters and LC conditions).
For quantification of catalpol, paeoniflorin, albiflorin, ferulic acid, and senkyunolide A in plasma, 100 µL of plasma sample was mixed with 20 µL of methanol (or working solution) and 20 µL of internal standard (niflumic acid or swertiamarin) and pretreated by deproteinization using 500 µL of acetonitrile. […] Finally, the dried residue was dissolved in 60 µL of the specific HPLC mobile phase used for analysis and then a 10 μL aliquot was injected into the LC–MS/MS system.
For quantification of ligustilide and butylphthalide in plasma, 200 µL of plasma sample was mixed with 40 µL of methanol (or working solution) and 40 µL of internal standard (imperatorin) and centrifuged at 15000×g for 10 min at 4 °C, the whole volume of supernatant was collected and subsequently pretreated by solid-phase extraction using Oasis HLB Extraction Cartridge (Waters, Milford, MA, USA). The acetonitrile elutes were collected and then dried under a steam of nitrogen gas. Finally, the dried residue was dissolved in 70 µL of the specific HPLC mobile phase and injected 20 µL into the LC–MS/MS system.
For quantification of bergapten in plasma, 100 µL of plasma sample was mixed with 20 µL of methanol (or working solution) and 20 µL of internal standard (niflumic acid) and pretreated by solid-phase extraction using an Oasis HLB 96-well µElution plate. Next, the mixied elutes of acetonitrile and isopropyl alcohol (1:1, v/v) were collected and then dried under a steam of nitrogen gas. Finally, the dried residue was dissolved in 60 µL of the specific HPLC mobile phase and injected 10 µL into the LC–MS/MS system.
For quantification of 8-debenzoylpaeoniflorin in plasma, 100 µL of plasma sample was mixed with 20 µL of methanol (or working solution) and 20 µL of internal standard (niflumic acid) and pretreated by liquid–liquid extraction using 500 µL of ethyl acetate. […] The dried residue was dissolved in 60 µL of the specific HPLC mobile phase and injected 10 µL into the LC–MS/MS system.
In addition, pharmacokinetic parameters of the shimotsuto ingredients detected in the plasma, such as the maximum concentration (Cmax) and area under the plasma level–time curve (AUC0−last), were calculated by noncompartmental moment analysis using Phoenix WinNonlin software (Certara L.P., St. Louis, MO, USA).

[3] = cited from earlier work
[4] = Plasma levels of catalpol in humans after goshajinkigan administration (unpublished data); assay type: in vivo, human; details: after goshajinkigan (including Rehmanniae Radix) administration
human TRPV1 = biological target: T1, human TRPV1 (Homo sapiens, UniProt Q8NER1); assay: Ca2+ influx assay for TRP channel agonistic activity in T-REx-293 cells; assay type: cell-based; details: 10 µmol/L test ingredient, positive control 2 µmol/L capsaicin, read-out: % Activation compared to positive control, TRPV1
T1 construct: The full length of each of human transient receptor potential ankyrin 1 (TRPA1), transient receptor potential cation channel subfamily V member 1 (TRPV1); expressed in transfected cells
T1 sequence (Q8NER1 whole entry): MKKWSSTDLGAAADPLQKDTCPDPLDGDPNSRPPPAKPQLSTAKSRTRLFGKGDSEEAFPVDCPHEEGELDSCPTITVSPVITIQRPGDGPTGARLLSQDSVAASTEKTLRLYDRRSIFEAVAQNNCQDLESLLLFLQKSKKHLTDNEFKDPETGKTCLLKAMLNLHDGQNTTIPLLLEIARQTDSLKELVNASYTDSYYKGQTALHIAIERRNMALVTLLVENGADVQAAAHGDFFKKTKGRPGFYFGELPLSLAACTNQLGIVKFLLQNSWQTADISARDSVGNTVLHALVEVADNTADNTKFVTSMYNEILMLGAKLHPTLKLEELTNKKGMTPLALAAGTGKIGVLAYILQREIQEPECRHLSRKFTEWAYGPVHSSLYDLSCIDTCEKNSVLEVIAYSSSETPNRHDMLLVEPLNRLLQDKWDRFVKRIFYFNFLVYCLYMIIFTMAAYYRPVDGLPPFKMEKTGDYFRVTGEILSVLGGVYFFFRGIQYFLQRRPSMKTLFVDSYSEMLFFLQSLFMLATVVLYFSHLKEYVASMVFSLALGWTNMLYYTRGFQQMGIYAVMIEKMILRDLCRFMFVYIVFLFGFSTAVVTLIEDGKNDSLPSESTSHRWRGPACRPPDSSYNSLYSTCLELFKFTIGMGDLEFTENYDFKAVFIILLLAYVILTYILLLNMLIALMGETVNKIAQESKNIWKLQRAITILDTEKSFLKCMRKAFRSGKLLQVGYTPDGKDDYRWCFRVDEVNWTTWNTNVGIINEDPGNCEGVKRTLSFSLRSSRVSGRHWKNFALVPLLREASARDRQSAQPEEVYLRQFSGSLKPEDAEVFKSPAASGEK
Text: (§1) The full length of each of human transient receptor potential ankyrin 1 (TRPA1), transient receptor potential cation channel subfamily V member 1 (TRPV1), transient receptor potential cation channel subfamily V member 4 (TRPV4), and transient receptor potential cation channel subfamily M member 8 (TRPM8) coding region was introduced into a pcDNA4/TO vector (Thermo Fisher Scientific, Waltham, MA, USA) and transfected into T-REx-293 cells (Thermo Fisher Scientific) to obtain stable cell lines expressing human TRPA1, TRPV1, TRPV4, and TRPM8. Next, the cells were cultured in Dulbecco’s Modified Eagle Medium containing 10% fetal bovine serum (FBS), 4 mM L-glutamine, and penicillin/streptomycin.
(§2) First, cells were suspended in culture medium with 1 µg/mL of tetracycline and seeded on a poly-D-lysine-coated 96-well plate at a density of 2.5 × 10^4 cells/well overnight. Next, the cells were used for Ca^2+ influx assay, as described previously with minor modifications, using a FLIPR Calcium 5 Assay Kit (Molecular Devices, San Jose, CA, USA). Briefly, cells were incubated in 80 µL of a Ca^2+-chelating dye dissolved in assay buffer at pH 7.4 (Hanks’ Balanced Salt Solution containing 20 mmol/L of 4-(2-hydroxyethyl)-1-piperazineethanesulfonic acid [HEPES]) for 30 min at room temperature. Next, the plates were assayed in a FlexStation 3 microplate reader (Molecular Devices). The fluorescence intensity was traced entirely for 80 s, and the fluorescence baseline was measured 20 s before application of 20 µL of the test compound (final concentration = 10 µmol/L). The response was expressed as percentage activation as follows:
(§3) Relative fluorescence units (RFU) (% activation) = ([RFUmax − RFUbaseline]/RFUbaseline) × 100
(§4) The activity of each test compound against TRPA1, TRPV1, TRPV4, and TRPM8 was represented as the relative enhancement of the Ca^2+ influx of each positive control as follows: 20 µmol/L of allyl isothiocyanate (TRPA1 agonist), 2 µmol/L of capsaicin (TRPV1 agonist), 4 µmol/L of GSK1016790A (TRPV4 agonist), and 20 µmol/L of icilin (TRPM8 agonist). The dose–response curve was fitted to the sigmoidal dose–response equation (Top: maximum response of each compound), and EC50 was calculated using GraphPad prism 7 software (GraphPad, San Diego, CA, USA).
(§5) Calcium ion influx into TRPA1-, TRPV1-, TRPV4-, or TRPM8-expressing T-REx-293 cells was measured to evaluate the agonistic effect of shimotsuto ingredients on TRP channels. The action of 10 µmol/L of each test ingredient was represented as the relative enhancement of the Ca^2+ influx of each positive control, indicated as follows: 20 µmol/L each of allyl isothiocyanate (TRPA1 agonist), 2 µmol/L capsaicin (TRPV1 agonist), 4 µmol/L GSK1016790A (TRPV4 agonist), and 20 µmol/L icilin (TRPM8 agonist). Dose–response tests of shimotsuto ingredients against TRPA1 were performed to calculate EC50.

human TRPA1 = biological target: T2, human TRPA1 (Homo sapiens, UniProt O75762); assay: as above; assay type: cell-based; details: for activation at 10 µM: T-REx-293, 10 µmol/L test ingredient, positive control 20 µmol/L allyl isothiocyanate, read-out: % Activation compared to positive control, TRPA1
T2 construct: The full length of each of human transient receptor potential ankyrin 1 (TRPA1); expressed in transfected cells
T2 sequence (O75762 whole entry): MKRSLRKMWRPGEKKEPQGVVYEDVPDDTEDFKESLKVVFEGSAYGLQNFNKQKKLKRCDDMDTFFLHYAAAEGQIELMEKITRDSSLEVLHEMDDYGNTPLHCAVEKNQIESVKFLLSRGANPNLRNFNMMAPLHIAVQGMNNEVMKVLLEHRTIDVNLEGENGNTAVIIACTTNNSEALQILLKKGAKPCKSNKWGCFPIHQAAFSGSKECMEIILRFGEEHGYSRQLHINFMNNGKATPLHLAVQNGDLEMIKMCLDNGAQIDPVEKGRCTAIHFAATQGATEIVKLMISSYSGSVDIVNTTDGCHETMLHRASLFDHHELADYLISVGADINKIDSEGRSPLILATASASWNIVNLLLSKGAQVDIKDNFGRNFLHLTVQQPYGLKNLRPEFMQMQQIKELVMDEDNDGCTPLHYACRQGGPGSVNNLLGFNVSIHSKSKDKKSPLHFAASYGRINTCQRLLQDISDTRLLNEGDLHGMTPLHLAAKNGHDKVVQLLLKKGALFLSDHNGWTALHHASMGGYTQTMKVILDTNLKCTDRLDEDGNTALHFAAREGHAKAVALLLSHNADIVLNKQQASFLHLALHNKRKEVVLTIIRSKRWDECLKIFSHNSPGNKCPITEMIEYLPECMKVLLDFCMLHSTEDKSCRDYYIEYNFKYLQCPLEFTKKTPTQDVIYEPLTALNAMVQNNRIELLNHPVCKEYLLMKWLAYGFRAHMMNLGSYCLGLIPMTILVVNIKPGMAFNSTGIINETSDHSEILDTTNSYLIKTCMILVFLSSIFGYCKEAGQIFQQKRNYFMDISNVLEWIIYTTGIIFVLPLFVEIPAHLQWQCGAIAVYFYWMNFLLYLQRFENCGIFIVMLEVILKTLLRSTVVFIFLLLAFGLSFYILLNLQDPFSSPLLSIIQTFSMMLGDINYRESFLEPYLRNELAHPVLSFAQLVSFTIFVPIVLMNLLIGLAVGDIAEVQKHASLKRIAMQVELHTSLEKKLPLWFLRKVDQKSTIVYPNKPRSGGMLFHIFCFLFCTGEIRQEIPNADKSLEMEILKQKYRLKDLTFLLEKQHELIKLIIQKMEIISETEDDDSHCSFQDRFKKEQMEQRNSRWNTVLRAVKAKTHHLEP
Text: as §1, §2, §3, §4, §5

human TRPM8 = biological target: T3, human TRPM8 (Homo sapiens, UniProt Q7Z2W7); assay: as above; assay type: cell-based; details: 10 µmol/L test ingredient, positive control 20 µmol/L icilin, read-out: % Activation compared to positive control, TRPM8
T3 construct: The full length of each of human transient receptor potential ankyrin 1 (TRPA1); expressed in transfected cells
T3 sequence (Q7Z2W7 whole entry): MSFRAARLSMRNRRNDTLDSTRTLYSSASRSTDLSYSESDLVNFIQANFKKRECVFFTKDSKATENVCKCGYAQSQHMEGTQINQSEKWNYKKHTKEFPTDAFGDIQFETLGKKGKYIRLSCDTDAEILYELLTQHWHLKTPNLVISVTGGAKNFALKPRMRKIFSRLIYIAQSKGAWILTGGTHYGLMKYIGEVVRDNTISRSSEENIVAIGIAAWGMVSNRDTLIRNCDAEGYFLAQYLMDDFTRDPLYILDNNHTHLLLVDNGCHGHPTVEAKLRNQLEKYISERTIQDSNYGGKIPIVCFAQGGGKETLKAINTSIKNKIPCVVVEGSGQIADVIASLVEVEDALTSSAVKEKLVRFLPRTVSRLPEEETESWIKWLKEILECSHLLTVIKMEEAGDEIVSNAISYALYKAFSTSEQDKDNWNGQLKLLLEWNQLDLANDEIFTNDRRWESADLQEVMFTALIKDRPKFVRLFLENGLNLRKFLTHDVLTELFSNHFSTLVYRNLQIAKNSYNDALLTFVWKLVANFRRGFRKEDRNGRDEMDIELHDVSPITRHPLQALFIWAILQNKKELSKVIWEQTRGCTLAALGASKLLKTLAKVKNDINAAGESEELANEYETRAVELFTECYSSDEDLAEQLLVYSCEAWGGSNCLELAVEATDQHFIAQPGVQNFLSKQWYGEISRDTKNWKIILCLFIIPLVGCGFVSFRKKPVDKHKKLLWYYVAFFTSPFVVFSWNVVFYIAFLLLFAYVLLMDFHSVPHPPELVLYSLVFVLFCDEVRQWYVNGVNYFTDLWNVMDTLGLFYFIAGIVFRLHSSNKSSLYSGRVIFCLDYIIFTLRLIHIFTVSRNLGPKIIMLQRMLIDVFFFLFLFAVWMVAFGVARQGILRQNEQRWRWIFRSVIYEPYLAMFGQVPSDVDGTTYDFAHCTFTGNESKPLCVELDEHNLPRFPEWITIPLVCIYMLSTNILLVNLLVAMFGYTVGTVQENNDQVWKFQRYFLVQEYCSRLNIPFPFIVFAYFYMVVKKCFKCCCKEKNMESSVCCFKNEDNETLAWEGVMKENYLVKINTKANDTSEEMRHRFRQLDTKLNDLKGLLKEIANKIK
Text: as §1, §2, §3, §4, §5

human TRPV4 = biological target: T4, human TRPV4 (Homo sapiens, UniProt Q9HBA0); assay: as above; assay type: cell-based; details: 10 µmol/L test ingredient, positive control 4 µmol/L GSK1016790A, read-out: % Activation compared to positive control, TRPV4
T4 construct: The full length of each of human transient receptor potential ankyrin 1 (TRPA1); expressed in transfected cells
T4 sequence (Q9HBA0 whole entry): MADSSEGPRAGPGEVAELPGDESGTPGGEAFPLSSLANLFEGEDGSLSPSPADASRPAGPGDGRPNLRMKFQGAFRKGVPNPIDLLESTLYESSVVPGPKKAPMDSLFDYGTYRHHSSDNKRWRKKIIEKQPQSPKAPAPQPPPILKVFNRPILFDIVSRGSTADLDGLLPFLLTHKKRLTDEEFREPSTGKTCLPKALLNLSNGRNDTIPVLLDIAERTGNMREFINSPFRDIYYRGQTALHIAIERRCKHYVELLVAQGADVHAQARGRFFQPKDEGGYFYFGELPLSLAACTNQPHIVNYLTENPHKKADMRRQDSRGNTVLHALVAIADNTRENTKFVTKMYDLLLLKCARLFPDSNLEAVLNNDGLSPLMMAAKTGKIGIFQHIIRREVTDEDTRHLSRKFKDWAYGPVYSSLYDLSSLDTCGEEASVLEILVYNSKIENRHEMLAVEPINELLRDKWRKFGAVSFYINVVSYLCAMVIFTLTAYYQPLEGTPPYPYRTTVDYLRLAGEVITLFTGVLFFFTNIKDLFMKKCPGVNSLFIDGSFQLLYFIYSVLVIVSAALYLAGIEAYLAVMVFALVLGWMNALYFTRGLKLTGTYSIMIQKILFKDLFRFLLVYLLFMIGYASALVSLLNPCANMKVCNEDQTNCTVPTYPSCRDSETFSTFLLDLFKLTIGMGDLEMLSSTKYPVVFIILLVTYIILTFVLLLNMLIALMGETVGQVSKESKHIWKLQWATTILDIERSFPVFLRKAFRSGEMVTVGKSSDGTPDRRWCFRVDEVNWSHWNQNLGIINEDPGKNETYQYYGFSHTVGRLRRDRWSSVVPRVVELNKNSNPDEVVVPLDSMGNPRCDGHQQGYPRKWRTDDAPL
Text: as §1, §2, §3, §4, §5

[5] = system: transient receptor potential ankyrin 1 (TRPA1); design: method as in PMID 21894528; details: ref 15; cited from earlier work

| SMILES | Absolute bioavailability [1] | AUC(0-t) [2] | Cmax [2] | Tmax [2] | half-life [2] | Pharmacological action related to improvement of blood and the circulatory system ([3]; ref 11) | Plasma levels in humans [4] | activation at 10 µM (human TRPV1) | activation at 10 µM (human TRPA1) | activation at 10 µM (human TRPM8) | activation at 10 µM (human TRPV4) | Pharmacological action related to improvement of blood and the circulatory system [5] | Pharmacological action related to improvement of blood and the circulatory system ([3]; ref 8) | Pharmacological action related to improvement of blood and the circulatory system ([3]; ref 13) | Activation of TRPA1 (in words) (human TRPA1; TRP stable expression cell lines) | EC50 (human TRPA1; dose–response test, Ca2+ influx, read-out: EC50 against TRPA1) |
| --- | --- | --- | --- | --- | --- | --- | --- | --- | --- | --- | --- | --- | --- | --- | --- | --- |
| OC[C@H]1O[C@@H](O[C@@H]2OC=C[C@H]3[C@H](O)[C@@H]4O[C@]4(CO)[C@@H]23)[C@H](O)[C@@H](O)[C@@H]1O [Catalpol] | 66.7% | 2030 ng·h/mL | 1360 ng/mL | 60 min | 38.6 min | Protective effect on vascular endothelial function via multiple actions such as induction of serum nitric oxide [11] | quite low | 0% | 2% | 3% | 0% |  |  |  |  |  |
| CCC/C=C1\OC(=O)C2=C1CCC=C2 [Ligustilide] |  | 0.916 ng·h/mL | 2.83 ng/mL | 30 min |  |  |  | 0% | 87% | 18% | -1% | Activation of transient receptor potential ankyrin 1 (TRPA1; which plays a role in vasodilation) | vasorelaxation | vasorelaxation and increased blood flow effects | potently activated | 1.3 µM |
